The record followed here is patent publication US11033600B2, “Protease transition state inhibitor prodrugs” (priority 2016, dated 2021).

In experiment [1] the target is norovirus 3CL protease (NV 3CLpro) (Norovirus, UniProt Q83883). In words: FRET protease assay (3CL protease), enzyme inhibition. The class given is biochemical. As to the method:
FRET protease assays. The FRET protease assay (3CL protease) was performed by preparing stock solutions of the substrate (Edans-DFHLQ/GP-Dabcyl, SEQ ID NO:1) and inhibitor in DMSO and diluting into assay buffer which was comprised of 20 mM HEPES buffer, pH 8, containing NaCl (200 mM), 0.4 mM EDTA, glycerol (60%), and 6 mM dithiothreitol (DTT). The protease was mixed with serial dilutions of each compound up to 100 μM or with DMSO in 25 μL of assay buffer and incubated at 37° C. for 30 min, followed by the addition of 25 μL of assay buffer containing substrate. Fluorescence readings were obtained using an excitation wavelength of 360 nm and an emission wavelength of 460 nm on a fluorescence microplate reader (FLx800; Biotec, Winoosk, Vt.) 1 h following the addition of substrate. Relative fluorescence units (RFU) were determined by subtracting background values (substrate-containing well without protease) from the raw fluorescence values. The dose-dependent FRET inhibition curves were fitted with a variable slope by using GraphPad Prism software (GraphPad, La Jolla, Calif.) in order to determine the IC50 values of the inhibitors.

The test system of experiment [2] is NV in replicon harboring cells (HG23 cells). In words: Cell-based assay: virus replication in NV replicon harboring cells (HG23 cells), qRT-PCR. Set-up: species or system norovirus (NV). How it is done:
The effects of each inhibitor on virus replication were examined against NV in the NV replicon harboring cells (HG23 cells). Briefly, confluent and semi-confluent HG23 cells were incubated with medium containing DMSO (<0.1%) or each compound (up to 200 uM) for 48 h. After the incubation, total RNA was extracted and viral genome was quantitated with real-time quantitative RT-PCR (qRT-PCR). The EC50 values were determined by GraphPadPrism software.
On the technique in general: Replicon systems follow genome replication, usually without infectious particles.

[3] abbreviates: Table 1, ester prodrugs, average of at least two determinations, read-out: IC50 (50% inhibitory concentration in the enzyme assay).
[4] abbreviates: Table 1, ester prodrugs, HG23 cells, 48 h, read-out: EC50 (50% effective concentration in cell culture).
Setting [5] is: Norovirus, HG23, given in M, read-out: EC50.
[6] abbreviates: Table 2, carbamate prodrugs, read-out: IC50.
Where [7] appears, read: Table 2, carbamate prodrugs, HG23 cells, 48 h, read-out: EC50.

Read-outs that look alike come from different tables or passages of the source.

Chain of norovirus 3CL protease (NV 3CLpro) (Q83883 1101-1281): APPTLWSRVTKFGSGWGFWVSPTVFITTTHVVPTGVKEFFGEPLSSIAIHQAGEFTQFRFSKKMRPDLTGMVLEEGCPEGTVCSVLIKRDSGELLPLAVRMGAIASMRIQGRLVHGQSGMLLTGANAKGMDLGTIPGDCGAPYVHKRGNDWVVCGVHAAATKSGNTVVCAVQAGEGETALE

In the case of `CCCCCC(=O)OC([C@H](C[C@@H]1CCNC1=O)NC(=O)[C@H](CC(C)C)NC(=O)OCc1ccccc1)S(=O)(=O)O` (stereo partly drawn) [Compound 5, (5 S, 8S)-5-Isobutyl-3,6,11-trioxo-8-(((S)-2-oxopyrrolidin-3-yl)methyl)-1-phenyl-2,10-dioxa-4,7-diazahexadecane-9-sulfonate], the IC50 in experiment [1] (setting [3]) was 2.8 µM. Besides, the EC50 in experiment [2] (setting [4]) stood at 0.3 µM. As to `CCCCCCOC(=O)OC([C@H](CC1CCNC1=O)NC(=O)[C@H](CC1CCCCC1)NC(=O)OCc1cccc(Cl)c1)S(=O)(=O)O` (some centres unmarked) [Compound 17, (5 S, 8S)-1-(3-chlorophenyl)-5-(cyclohexylmethyl)-3,6,11-trioxo-8-((2-oxo-pyrrolidin-3-yl)methyl)-2,10,12-trioxa-4,7-diazaoctadecane-9-sulfonate], the IC50 in experiment [1] (setting [3]) stood at 0.8 µM. In addition, the EC50 in experiment [2] (setting [4]) was 0.025 µM. On the same counts, the results for `O=C(N[C@@H](CC1CCCCC1)C(=O)N[C@@H](C[C@@H]1CCNC1=O)C(OC(=O)C1CCCCC1)S(=O)(=O)O)OCc1ccccc1` (stereo partly drawn) [Compound 16, (5S,8S)-11-Cyclohexyl-5-(cyclohexylmethyl)-3,6,11-trioxo-8-(((S)-2-oxopyrrolidin-3-yl)methyl)-1-phenyl-2,10-dioxa-4,7-diazaundecane-9-sulfonate] are 0.6 µM and 0.06 µM. Consider `CC(C)C[C@H](NC(=O)OCc1ccccc1)C(=O)N[C@@H](C[C@@H]1CCNC1=O)C(O)S(=O)(=O)O` (some centres unmarked) [Compound 24, reference compound], for which the IC50 in experiment [1] (in μM, read-out: IC50) was 0.8 µM. In addition, in experiment [2] (setting [5]), the EC50 amounted to 0.3 µM. On to `CCCC(=O)OC([C@H](C[C@@H]1CCNC1=O)NC(=O)[C@H](CC(C)C)NC(=O)OCc1ccccc1)S(=O)(=O)O` (stereo partly drawn) [Compound 3, (5S,8S)-5-Isobutyl-3,6,11-trioxo-8-(((S)-2-oxopyrrolidin-3-yl)methyl)-1-phenyl-2,10-dioxa-4,7-diazatetradecane-9-sulfonate], for which the IC50 in experiment [1] (setting [3]) was 3.7 µM. Moreover, the EC50 in experiment [2] (setting [4]) was 1.3 µM. On the same counts, the results for `O=C(N[C@@H](CC1CCCCC1)C(=O)N[C@@H](C[C@@H]1CCNC1=O)C(OC(=O)C1CCCCC1)S(=O)(=O)O)OCc1cccc(Cl)c1` (stereo partly drawn) [Compound 14, (5 S,8S)-1-(3-Chlorophenyl)-11-cyclohexyl-5-(cyclohexylmethyl)-3,6,11-trioxo-8-(((S)-2-oxopyrrolidin-3-yl)methyl)-2,10-dioxa-4,7-diazaundecane-9-sulfonate] are 0.4 µM and 0.02 µM. Consider `O=C(N[C@@H](CC1CCCCC1)C(=O)N[C@@H](C[C@@H]1CCNC1=O)C(O)S(=O)(=O)O)OCc1cccc(Cl)c1` (some centres unmarked) [Compound 26, reference compound], for which the IC50 in experiment [1] (in μM, read-out: IC50) came out at 0.1 µM. In addition, the EC50 in experiment [2] (setting [5]) was 0.02 µM. Turning to `CC(C)C(=O)OC([C@H](C[C@@H]1CCNC1=O)NC(=O)[C@H](CC1CCCCC1)NC(=O)OCc1cccc(Cl)c1)S(=O)(=O)O` (stereo partly drawn) [Compound 13, (5 S, 8S)-1-(3-Chlorophenyl)-5-(cyclohexylmethyl)-12-methyl-3,6,11-trioxo-8-(((S)-2-oxopyrrolidin-3-yl)methyl)-2,10-dioxa-4,7-diazatridecane-9-sulfonate], the IC50 in experiment [1] (setting [3]) was found to be 0.3 µM. Moreover, the EC50 in experiment [2] (setting [4]) turned out to be 0.03 µM. For `COC(=O)C(C)NC(=O)OC([C@H](C[C@@H]1CCNC1=O)NC(=O)[C@H](CC(C)C)NC(=O)OCc1ccccc1)S(=O)(=O)O` (stereo partly drawn) [Compound 19, (5 S,8S)-5-Isobutyl-13-methyl-3,6,11,14-tetraoxo-8-(((S)-2-oxopyrrolidin-3-yl)methyl)-1-phenyl-2,10,15-trioxa-4,7,12-triazahexadecane-9-sulfonate], the IC50 in experiment [1] (setting [6]) stood at 1.8 µM. The EC50 in experiment [2] (setting [7]) is 0.3 µM. For the compound `O=C[C@H](C[C@@H]1CCNC1=O)NC(=O)[C@H](CC1CCCCC1)NC(=O)OCc1cccc(Cl)c1` [Compound 25, reference compound], the EC50 in experiment [2] (Norovirus, HG23, in μM, read-out: EC50) came out at 0.02 µM. Consider `CC(C)C[C@H](NC(=O)OCc1ccccc1)C(=O)N[C@@H](C[C@@H]1CCNC1=O)C(OC(=O)C(C)C)S(=O)(=O)O` (stereo partly drawn) [Compound 8, (5S,8S)-5-Isobutyl-12-methyl-3,6,11-trioxo-8-(((S)-2-oxopyrrolidin-3-yl)methyl)-1-phenyl-2,10-dioxa-4,7-diazatridecane-9-sulfonate], for which, in experiment [1] (setting [3]), the IC50 was found to be 3.5 µM. For the same compound, in experiment [2] (setting [4]), the EC50 turned out to be 0.3 µM.

On to `CC(=O)OC([C@H](C[C@@H]1CCNC1=O)NC(=O)[C@H](CC1CCCCC1)NC(=O)OCc1cccc(Cl)c1)S(=O)(=O)O` (stereo partly drawn) [Compound 9, (5 S, 8S)-1-(3-Chlorophenyl)-5-(cyclohexylmethyl)-3,6,11-trioxo-8-(((S)-2-oxopyrrolidin-3-yl)methyl)-2,10-dioxa-4,7-diazadodecane-9-sulfonate], for which the IC50 in experiment [1] (setting [3]) amounted to 0.08 µM. Besides, the EC50 in experiment [2] (setting [4]) stood at 0.03 µM.

For the compound `CC(=O)OC([C@H](C[C@@H]1CCNC1=O)NC(=O)[C@H](CC1CCCCC1)NC(=O)OCc1ccccc1)S(=O)(=O)O` (stereo partly drawn) [Compound 15, (5S,8S)-5-(Cyclohexylmethyl)-3,6,11-trioxo-8-(((S)-2-oxopyrrolidin-3-yl)methyl)-1-phenyl-2,10-dioxa-4,7-diazadodecane-9-sulfonate], in experiment [1] (setting [3]), the IC50 is 7.5 µM. Also, the EC50 in experiment [2] (setting [4]) was found to be 0.2 µM. For `CCCCC(=O)OC([C@H](C[C@@H]1CCNC1=O)NC(=O)[C@H](CC(C)C)NC(=O)OCc1ccccc1)S(=O)(=O)O` (stereo partly drawn) [Compound 4, (5S,8S)-5-Isobutyl-3,6,11-trioxo-8-(((S)-2-oxopyrrolidin-3-yl)methyl)-1-phenyl-2,10-dioxa-4,7-diazapentadecane-9-sulfonate] the same measures were 3.5 µM and 1.4 µM. In the case of `COC(=O)C(NC(=O)OC([C@H](C[C@@H]1CCNC1=O)NC(=O)[C@H](CC(C)C)NC(=O)OCc1ccccc1)S(=O)(=O)O)C(C)C` (stereo partly drawn) [Compound 20, (5 S,8S)-5-Isobutyl-13-isopropyl-3,6,11,14-tetraoxo-8-(((S)-2-oxopyrrolidin-3-yl)methyl)-1-phenyl-2,10,15-trioxa-4,7,12-triazahexadecane-9-sulfonate], the IC50 in experiment [1] (setting [6]) stood at 2.5 µM. The EC50 in experiment [2] (setting [7]) was 0.4 µM. `COC(=O)CNC(=O)OC([C@H](C[C@@H]1CCNC1=O)NC(=O)[C@H](CC(C)C)NC(=O)OCc1ccccc1)S(=O)(=O)O` (stereo partly drawn) [Compound 18, (5 S,8S)-5-Isobutyl-3,6,11,14-tetraoxo-8-(((S)-2-oxopyrrolidin-3-yl)methyl)-1-phenyl-2,10,15-trioxa-4,7,12-triazahexadecane-9-sulfonate]: the IC50 in experiment [1] (setting [6]) came to 3.1 µM. In experiment [2] (setting [7]), the EC50 was 0.4 µM.

On to `CC(C)C[C@H](NC(=O)OCc1ccccc1)C(=O)N[C@@H](C[C@@H]1CCNC1=O)C(OC(=O)c1ccccc1)S(=O)(=O)O` (stereo partly drawn) [Compound 7, (5S,8S)-5-Isobutyl-3,6,11-trioxo-8-(((S)-2-oxopyrrolidin-3-yl)methyl)-1,11-diphenyl-2,10-dioxa-4,7-diazaundecane-9-sulfonate], for which the IC50 in experiment [1] (setting [3]) came to 7.2 µM. For the same compound, the EC50 in experiment [2] (setting [4]) is 0.8 µM. For `CCCCCCCC(=O)OC([C@H](C[C@@H]1CCNC1=O)NC(=O)[C@H](CC(C)C)NC(=O)OCc1ccccc1)S(=O)(=O)O` (stereo partly drawn) [Compound 6, (5S,8S)-5-Isobutyl-3,6,11-trioxo-8-(((S)-2-oxopyrrolidin-3-yl)methyl)-1-phenyl-2,10-dioxa-4,7-diazaoctadecane-9-sulfonate] the same measures were 3 µM and 0.5 µM. In the case of `CCC(=O)OC([C@H](CC1CCNC1=O)NC(=O)[C@H](CC1CCCCC1)NC(=O)OCc1cccc(Cl)c1)S(=O)(=O)O` (some centres unmarked) [Compound 10, (5 S, 8S)-1-(3-chlorophenyl)-5-(cyclohexylmethyl)-3,6,11-trioxo-8-((2-oxopyrrolidin-3-yl)methyl)-2,10-dioxa-4,7-diazatridecane-9-sulfonate], the IC50 in experiment [1] (setting [3]) is 0.1 µM. For the same compound, the EC50 in experiment [2] (setting [4]) amounted to 0.025 µM.

`COC(=O)C(C)NC(=O)OC([C@H](C[C@@H]1CCNC1=O)NC(=O)[C@H](CC1CCCCC1)NC(=O)OCc1cccc(Cl)c1)S(=O)(=O)O` (stereo partly drawn) [Compound 21, (5 S, 8S)-1-(3-Chlorophenyl)-5-(cyclohexylmethyl)-13-methyl-3,6,11,14-tetraoxo-8-(((S)-2-oxopyrrolidin-3-yl)methyl)-2,10,15-trioxa-4,7,12-triazahexadecane-9-sulfonate]: in experiment [1] (setting [6]), the IC50 is 0.8 µM. Also, the EC50 in experiment [2] (setting [7]) was 0.025 µM.

`CC(=O)OC([C@H](C[C@@H]1CCNC1=O)NC(=O)[C@H](CC(C)C)NC(=O)OCc1ccccc1)S(=O)(=O)O` (stereo partly drawn) [Compound 1, (5S,8S)-5-Isobutyl-3,6,11-trioxo-8-(((S)-2-oxopyrrolidin-3-yl)methyl)-1-phenyl-2,10-dioxa-4,7-diazadodecane-9-sulfonate]: the IC50 in experiment [1] (setting [3]) is 10.5 µM. Further, the EC50 in experiment [2] (setting [4]) worked out at 0.6 µM.
